According to ChEMBL document CHEMBL1135064, “Studies on quinazolinones as dual inhibitors of Pgp and MRP1 in multidrug resistance” (Bioorg Med Chem Lett, 2002):

Legend:
[1] = target: Multidrug resistance-associated protein 1 (Homo sapiens, UniProt P33527); assay: Inhibition of multidrug resistance associated protein type 1 (MRP1) assayed by an accumulation assay in COR.L23/R cells; format: functional, cell-based
[2] = target: ATP-dependent translocase ABCB1 (Mus musculus, UniProt P06795); assay: Inhibitory activity against P-glycoprotein (Pgp) using accumulation assay for Pgp expressing EMT6/AR1.0 cells.; format: functional
ATP-dependent translocase ABCB1, sequence (P06795 whole entry): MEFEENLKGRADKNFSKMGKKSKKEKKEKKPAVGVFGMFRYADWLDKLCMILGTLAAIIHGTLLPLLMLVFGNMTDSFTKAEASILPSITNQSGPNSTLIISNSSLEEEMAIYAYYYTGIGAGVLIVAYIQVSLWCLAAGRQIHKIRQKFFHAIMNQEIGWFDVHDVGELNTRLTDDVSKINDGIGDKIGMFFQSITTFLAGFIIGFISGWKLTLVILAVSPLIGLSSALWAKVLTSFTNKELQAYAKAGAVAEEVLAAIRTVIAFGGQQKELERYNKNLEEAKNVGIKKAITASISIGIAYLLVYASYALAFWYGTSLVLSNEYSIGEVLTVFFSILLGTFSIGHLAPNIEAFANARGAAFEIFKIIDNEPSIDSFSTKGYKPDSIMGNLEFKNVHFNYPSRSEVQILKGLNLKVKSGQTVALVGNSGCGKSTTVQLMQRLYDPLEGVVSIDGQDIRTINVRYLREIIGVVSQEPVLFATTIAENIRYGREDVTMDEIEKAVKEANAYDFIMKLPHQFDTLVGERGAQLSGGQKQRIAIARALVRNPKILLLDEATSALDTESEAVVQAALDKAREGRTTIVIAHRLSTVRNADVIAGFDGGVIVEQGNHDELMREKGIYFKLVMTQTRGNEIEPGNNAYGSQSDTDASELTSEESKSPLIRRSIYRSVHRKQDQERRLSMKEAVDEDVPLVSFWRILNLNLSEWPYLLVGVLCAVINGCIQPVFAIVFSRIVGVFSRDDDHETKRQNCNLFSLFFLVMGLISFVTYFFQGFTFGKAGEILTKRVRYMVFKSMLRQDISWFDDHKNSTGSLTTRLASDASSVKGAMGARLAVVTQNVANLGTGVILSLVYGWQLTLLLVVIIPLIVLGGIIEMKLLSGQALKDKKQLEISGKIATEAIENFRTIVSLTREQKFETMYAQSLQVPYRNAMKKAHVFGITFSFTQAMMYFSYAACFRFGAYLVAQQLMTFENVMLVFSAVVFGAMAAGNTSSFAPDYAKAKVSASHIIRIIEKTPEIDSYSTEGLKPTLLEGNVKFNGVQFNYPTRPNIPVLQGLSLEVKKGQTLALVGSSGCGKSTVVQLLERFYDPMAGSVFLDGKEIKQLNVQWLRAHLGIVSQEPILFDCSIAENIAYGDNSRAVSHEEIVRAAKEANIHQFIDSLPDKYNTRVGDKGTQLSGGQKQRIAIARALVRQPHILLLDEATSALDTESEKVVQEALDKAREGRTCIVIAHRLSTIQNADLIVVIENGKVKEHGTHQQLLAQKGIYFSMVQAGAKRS

[3] = Compound was evaluated for its inhibitory activity against multidrug resistance associated protein type 1 (MRP) using potentiation assay; format: functional, Homo sapiens
EMT6 = assay: Compound was evaluated for its inhibitory activity against P-glycoprotein (Pgp) using potentiation assay; format: functional, cell-based; conditions: Mus musculus

Multidrug resistance-associated protein 1, sequence (P33527 whole entry): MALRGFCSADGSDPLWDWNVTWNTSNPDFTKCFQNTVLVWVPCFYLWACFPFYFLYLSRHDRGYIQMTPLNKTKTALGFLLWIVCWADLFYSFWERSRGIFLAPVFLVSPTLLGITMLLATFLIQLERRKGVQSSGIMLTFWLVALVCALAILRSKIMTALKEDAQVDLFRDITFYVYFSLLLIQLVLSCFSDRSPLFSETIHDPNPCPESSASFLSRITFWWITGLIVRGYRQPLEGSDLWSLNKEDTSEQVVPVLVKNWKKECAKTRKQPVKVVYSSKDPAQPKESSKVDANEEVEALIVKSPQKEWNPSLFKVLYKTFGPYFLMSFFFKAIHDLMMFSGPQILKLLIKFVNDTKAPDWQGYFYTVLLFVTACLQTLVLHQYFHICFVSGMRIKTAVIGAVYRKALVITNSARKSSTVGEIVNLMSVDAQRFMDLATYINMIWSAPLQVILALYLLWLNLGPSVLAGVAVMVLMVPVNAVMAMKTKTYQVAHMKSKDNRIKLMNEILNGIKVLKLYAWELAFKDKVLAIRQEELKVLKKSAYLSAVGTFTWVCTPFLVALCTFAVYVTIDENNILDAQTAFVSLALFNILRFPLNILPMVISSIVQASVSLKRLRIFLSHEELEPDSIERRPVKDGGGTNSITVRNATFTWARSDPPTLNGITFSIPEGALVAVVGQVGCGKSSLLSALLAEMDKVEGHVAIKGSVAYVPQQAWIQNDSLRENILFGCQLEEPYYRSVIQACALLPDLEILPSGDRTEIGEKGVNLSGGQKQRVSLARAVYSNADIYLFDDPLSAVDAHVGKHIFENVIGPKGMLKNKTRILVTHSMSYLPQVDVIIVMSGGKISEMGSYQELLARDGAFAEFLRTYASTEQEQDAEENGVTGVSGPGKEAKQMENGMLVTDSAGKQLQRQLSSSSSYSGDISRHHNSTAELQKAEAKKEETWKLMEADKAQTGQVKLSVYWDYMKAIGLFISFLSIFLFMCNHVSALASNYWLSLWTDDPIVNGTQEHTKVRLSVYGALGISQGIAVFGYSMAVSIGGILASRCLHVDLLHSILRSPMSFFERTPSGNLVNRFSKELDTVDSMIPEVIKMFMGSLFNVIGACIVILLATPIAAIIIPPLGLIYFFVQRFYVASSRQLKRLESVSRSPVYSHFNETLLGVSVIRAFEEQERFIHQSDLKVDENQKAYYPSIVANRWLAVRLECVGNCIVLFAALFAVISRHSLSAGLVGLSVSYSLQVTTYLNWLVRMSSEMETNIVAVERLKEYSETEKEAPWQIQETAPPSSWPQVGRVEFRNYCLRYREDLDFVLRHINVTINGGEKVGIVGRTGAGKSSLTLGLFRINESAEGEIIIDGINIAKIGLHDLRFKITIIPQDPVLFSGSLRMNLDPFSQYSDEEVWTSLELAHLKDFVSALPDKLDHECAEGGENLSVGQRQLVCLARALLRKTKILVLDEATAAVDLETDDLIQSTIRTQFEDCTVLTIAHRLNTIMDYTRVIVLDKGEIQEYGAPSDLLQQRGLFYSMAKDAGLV

SMILES | IC50 [1] [µM] | IC50 [2] [µM] | EC50 [3] [µM] | EC50 (EMT6) [µM]
CCN(CC)c1ccc(-c2nc3ccccc3c(=O)n2CCN2CCc3cc(OC)c(OC)cc3C2)cc1 | > 10 | 1.3 | – | –
COc1cc2c(cc1OC)CN(CCn1c(-c3ccc4c(c3)OCO4)nc3ccccc3c1=O)CC2 | 1.5 | 3.7 | – | –
CN(C)c1ccc(-c2nc3ccccc3c(=O)n2CCN2CCc3ccccc3C2)cc1 | 3.2 | 5 | – | –
COc1cc(C(=O)C(=O)N2CCCC[C@H]2C(=O)OC(CCCc2cccnc2)CCCc2cccnc2)cc(OC)c1OC [BIRICODAR] | 5.18 | 5 | – | –
CCCCCCn1c(-c2ccc(N(C)C)cc2)nc2ccccc2c1=O | > 100 | 40 | – | –
CN(C)c1ccc(-c2nc3ccccc3c(=O)n2CC2CCCCC2)cc1 | 10 | 14 | – | –
COc1cc2c(cc1OC)CN(CCn1c(-c3ccc(-c4ccccc4)cc3)nc3ccccc3c1=O)CC2 | 1 | 1.03 | – | –
CN(C)c1ccc(-c2nc3ccccc3c(=O)n2Cc2ccccc2)cc1 | > 100 | 41 | – | –
COc1cc2c(cc1OC)CN(CCn1c(-c3ccccc3O)nc3ccccc3c1=O)CC2 | 95 | – | – | –
COc1cc2c(cc1OC)CN(CCn1c(-c3ccc(C(C)C)cc3)nc3ccccc3c1=O)CC2 | 0.5 | 1 | – | –
CCCc1cccc(-c2nc3ccccc3c(=O)n2CCN2CCc3cc(OC)c(OC)cc3C2)c1 | 1 | 0.8 | – | –
COc1cc(C(=O)N2CCN(CCn3c(-c4ccc(N(C)C)cc4)nc4ccccc4c3=O)CC2)cc(OC)c1OC | 7.2 | 4.2 | – | –
CN(C)c1ccc(-c2nc3ccccc3c(=O)n2CCc2ccncc2)cc1 | 3.33 | 10 | – | –
COc1cc2c(cc1OC)CN(CCn1c(-c3ccccc3)nc3ccccc3c1=O)CC2 | 2.8 | 8 | – | –
CN(C)c1ccc(-c2nc3ccccc3c(=O)n2CCN2CCN(c3ncccn3)CC2)cc1 | 36 | 0.39 | – | –
COc1cc2c(cc1OC)CN(CCn1c(-c3cccc(N(C)C)c3)nc3ccccc3c1=O)CC2 | 4.5 | 1.6 | – | –
COc1cc2c(cc1OC)CN(CCn1c(-c3ccc4ccccc4c3)nc3ccccc3c1=O)CC2 | 0.9 | 0.85 | – | –
CN(C)c1ccc(-c2nc3ccccc3c(=O)n2CCN2CCN(Cc3ccccc3)CC2)cc1 | 39 | 2.1 | – | –
COc1ccc(CCN(C)CCn2c(-c3ccc(N(C)C)cc3)nc3ccccc3c2=O)cc1OC | 37 | 1.9 | – | –

The next lines start with the values.

IC50 [1] [µM] | IC50 [2] [µM] | EC50 [3] [µM] | EC50 (EMT6) [µM] | SMILES
1.56 | 1.7 | – | – | COc1cc2c(cc1OC)CN(CCn1c(-c3ccc(N(C)C)cc3)nc3ccc(Cl)cc3c1=O)CC2
2.91 | 1.06 | – | – | COc1cc2c(cc1OC)CN(CCn1c(-c3ccc(N(C)C)cc3)nc3c(Cl)cccc3c1=O)CC2
1.05 | 1.07 | 3.01 | 3.3 | COc1cc2c(cc1OC)CN(CCn1c(-c3ccc(N(C)C)cc3)nc3ccccc3c1=O)CC2
0.4 | 0.6 | – | – | COc1cc2c(cc1OC)CN(CCn1c(-c3ccc(N(C)C)cc3)nc3ccc([N+](=O)[O-])cc3c1=O)CC2
2.02 | 1.1 | – | – | COc1cc2c(cc1OC)CN(CCn1c(-c3ccc(N(C)C)cc3)nc3cc([N+](=O)[O-])ccc3c1=O)CC2
18.6 | 7.2 | – | – | COc1cc2c(cc1OC)CN(CCn1c(-c3ccc(N(C)C)cc3)nc3cc(N)ccc3c1=O)CC2
3.84 | 0.16 | – | – | COc1cc2c(cc1OC)CN(CCn1c(-c3ccc(N(C)C)cc3)nc3cccc(Cl)c3c1=O)CC2
7.6 | 2 | – | – | COc1cc2c(cc1OC)CN(CCn1c(-c3ccc(N(C)C)cc3)nc3ccc(N)cc3c1=O)CC2
15.1 | 0.05 | – | – | COc1cc2c(cc1OC)CN(CCn1c(-c3ccc(N(C)C)cc3)nc3c(OC)cccc3c1=O)CC2
1.33 | 1.35 | – | – | COc1cc2c(cc1OC)CN(CCn1c(-c3ccc(N(C)C)cc3)nc3cc(Cl)ccc3c1=O)CC2
6.35 | 0.63 | – | – | COc1cc2c(cc1OC)CN(CCn1c(-c3ccc(N(C)C)cc3)nc3c(C)cccc3c1=O)CC2
